Laboratory results reported in the NIST ThermoML archive (doi:10.1021/je7003929).

Experiment: xn = mol fraction of the nth substance listed
Conditions: Liquid, Vibrating tube method

c1ccc2sccc2c1 [benzo[b]thiophene] + CCCCCC
Conditions	mass density [kg/m3]
322.95 K, 1028 kPa, x2 = 0.0629	1103.4
322.95 K, 2021 kPa, x2 = 0.0629	1104.1
322.95 K, 3029 kPa, x2 = 0.0629	1104.7
322.95 K, 4021 kPa, x2 = 0.0629	1105.4
322.95 K, 5037 kPa, x2 = 0.0629	1106.1
322.95 K, 6021 kPa, x2 = 0.0629	1106.7
322.95 K, 7021 kPa, x2 = 0.0629	1107.4
322.95 K, 8029 kPa, x2 = 0.0629	1108.1
322.95 K, 9018 kPa, x2 = 0.0629	1108.7
322.95 K, 10003 kPa, x2 = 0.0629	1109.3
322.95 K, 10998 kPa, x2 = 0.0629	1109.9
322.95 K, 12016 kPa, x2 = 0.0629	1110.6
322.95 K, 13012 kPa, x2 = 0.0629	1111.2
322.95 K, 14019 kPa, x2 = 0.0629	1111.8
322.95 K, 15018 kPa, x2 = 0.0629	1112.5
322.95 K, 16018 kPa, x2 = 0.0629	1113.1
322.95 K, 17024 kPa, x2 = 0.0629	1113.7
322.95 K, 18018 kPa, x2 = 0.0629	1114.4
322.95 K, 19024 kPa, x2 = 0.0629	1115
322.95 K, 20012 kPa, x2 = 0.0629	1115.6
323.02 K, 1017 kPa, x2 = 0.7491	752.7
323.02 K, 2013 kPa, x2 = 0.7491	753.8
323.02 K, 3014 kPa, x2 = 0.7491	754.9
323.02 K, 4012 kPa, x2 = 0.7491	756
323.02 K, 5008 kPa, x2 = 0.7491	757.1
323.02 K, 6010 kPa, x2 = 0.7491	758.1
323.02 K, 7025 kPa, x2 = 0.7491	759.2
323.02 K, 8028 kPa, x2 = 0.7491	760.2
323.02 K, 9009 kPa, x2 = 0.7491	761.2
323.02 K, 10010 kPa, x2 = 0.7491	762.2
323.02 K, 11002 kPa, x2 = 0.7491	763.2
323.02 K, 12017 kPa, x2 = 0.7491	764.1
323.02 K, 13019 kPa, x2 = 0.7491	765.1
323.02 K, 14006 kPa, x2 = 0.7491	766
323.02 K, 15015 kPa, x2 = 0.7491	767
323.02 K, 16022 kPa, x2 = 0.7491	767.9
323.02 K, 17019 kPa, x2 = 0.7491	768.8
323.02 K, 18016 kPa, x2 = 0.7491	769.8
323.02 K, 19024 kPa, x2 = 0.7491	770.6
323.02 K, 20021 kPa, x2 = 0.7491	771.5
323.09 K, 1017 kPa, x2 = 0.9432	659.3
323.09 K, 2024 kPa, x2 = 0.9432	660.6
323.09 K, 3024 kPa, x2 = 0.9432	661.9
323.09 K, 4016 kPa, x2 = 0.9432	663.1
323.09 K, 5024 kPa, x2 = 0.9432	664.2
323.09 K, 6021 kPa, x2 = 0.9432	665.5
323.09 K, 7018 kPa, x2 = 0.9432	666.6
323.09 K, 8020 kPa, x2 = 0.9432	667.8
323.09 K, 9019 kPa, x2 = 0.9432	668.9
323.09 K, 10010 kPa, x2 = 0.9432	670
323.09 K, 11012 kPa, x2 = 0.9432	671.1
323.09 K, 12013 kPa, x2 = 0.9432	672.2
323.09 K, 13021 kPa, x2 = 0.9432	673.3
323.09 K, 14023 kPa, x2 = 0.9432	674.3
323.09 K, 15015 kPa, x2 = 0.9432	675.3
323.09 K, 16001 kPa, x2 = 0.9432	676.3
323.09 K, 17028 kPa, x2 = 0.9432	677.3
323.09 K, 18003 kPa, x2 = 0.9432	678.3
323.09 K, 19001 kPa, x2 = 0.9432	679.3
323.09 K, 20017 kPa, x2 = 0.9432	680.3
332.66 K, 1020 kPa, x2 = 0.2588	991.1
332.66 K, 2021 kPa, x2 = 0.2588	991.9
332.66 K, 3022 kPa, x2 = 0.2588	992.7
332.66 K, 4018 kPa, x2 = 0.2588	993.5
332.66 K, 5021 kPa, x2 = 0.2588	994.3
332.66 K, 6012 kPa, x2 = 0.2588	995
332.66 K, 7018 kPa, x2 = 0.2588	995.8
332.66 K, 8005 kPa, x2 = 0.2588	996.6
332.66 K, 9012 kPa, x2 = 0.2588	997.3
332.66 K, 10011 kPa, x2 = 0.2588	998.2
